The results in this text go back to patent US9526727B2, “Inhibitors of beta-secretase” (Vitae Pharmaceuticals, Inc., priority 2012, dated 2016).

The target in this data set is hERG channel (Homo sapiens (Human), UniProt Q12809). Put plainly: hERG-Channel Assay (Assay 3), whole-cell patch clamp. It counts as cell-based. The note with it: HEK293 cells stably transfected with hERG cDNA, pH 7.4, 35° C. From the text: hERG-Channel Assay (Assay 3)
• HEK (human embryonic kidney) 293 cells were stably transfected with hERG cDNA. • Pipettes and Solutions:
Cells were superfused with a bath solution containing (mM): NaCl (137), KCl (4.0), MgCl2 (1.0), CaCl2 (1.8), Glucose (10), HEPES (10), pH 7.4 with NaOH. Patch pipettes were made from borosilicate glass tubing using a horizontal puller and filled with pipette solution containing (mM): K-aspartate (130), MgCl2 (5.0), EGTA (5.0), K2ATP (4.0), HEPES (10.0), pH 7.2 with KOH. Resistance of the microelectrodes was in the range between 2 and 5 MΩ.
Stimulation and Recording:
Membrane currents were recorded using an EPC-10 patch clamp amplifier and PatchMaster software. hERG-mediated membrane currents were recorded at 35° C., using the whole-cell configuration of the patch-clamp technique. […] During each inter-pulse interval 4 pulses scaled down by a factor of 0.2 were recorded for a P/n leak subtraction procedure. […]
The different concentrations of the test compound were applied sequentially on each of the different cells investigated. A steady state level of baseline current was measured for at least 6 sweeps prior to the application of the first test compound concentration. […]
Peak current amplitudes were measured 3 ms after the ramp to +40 mV. […]

Chain of hERG channel (Q12809 whole entry): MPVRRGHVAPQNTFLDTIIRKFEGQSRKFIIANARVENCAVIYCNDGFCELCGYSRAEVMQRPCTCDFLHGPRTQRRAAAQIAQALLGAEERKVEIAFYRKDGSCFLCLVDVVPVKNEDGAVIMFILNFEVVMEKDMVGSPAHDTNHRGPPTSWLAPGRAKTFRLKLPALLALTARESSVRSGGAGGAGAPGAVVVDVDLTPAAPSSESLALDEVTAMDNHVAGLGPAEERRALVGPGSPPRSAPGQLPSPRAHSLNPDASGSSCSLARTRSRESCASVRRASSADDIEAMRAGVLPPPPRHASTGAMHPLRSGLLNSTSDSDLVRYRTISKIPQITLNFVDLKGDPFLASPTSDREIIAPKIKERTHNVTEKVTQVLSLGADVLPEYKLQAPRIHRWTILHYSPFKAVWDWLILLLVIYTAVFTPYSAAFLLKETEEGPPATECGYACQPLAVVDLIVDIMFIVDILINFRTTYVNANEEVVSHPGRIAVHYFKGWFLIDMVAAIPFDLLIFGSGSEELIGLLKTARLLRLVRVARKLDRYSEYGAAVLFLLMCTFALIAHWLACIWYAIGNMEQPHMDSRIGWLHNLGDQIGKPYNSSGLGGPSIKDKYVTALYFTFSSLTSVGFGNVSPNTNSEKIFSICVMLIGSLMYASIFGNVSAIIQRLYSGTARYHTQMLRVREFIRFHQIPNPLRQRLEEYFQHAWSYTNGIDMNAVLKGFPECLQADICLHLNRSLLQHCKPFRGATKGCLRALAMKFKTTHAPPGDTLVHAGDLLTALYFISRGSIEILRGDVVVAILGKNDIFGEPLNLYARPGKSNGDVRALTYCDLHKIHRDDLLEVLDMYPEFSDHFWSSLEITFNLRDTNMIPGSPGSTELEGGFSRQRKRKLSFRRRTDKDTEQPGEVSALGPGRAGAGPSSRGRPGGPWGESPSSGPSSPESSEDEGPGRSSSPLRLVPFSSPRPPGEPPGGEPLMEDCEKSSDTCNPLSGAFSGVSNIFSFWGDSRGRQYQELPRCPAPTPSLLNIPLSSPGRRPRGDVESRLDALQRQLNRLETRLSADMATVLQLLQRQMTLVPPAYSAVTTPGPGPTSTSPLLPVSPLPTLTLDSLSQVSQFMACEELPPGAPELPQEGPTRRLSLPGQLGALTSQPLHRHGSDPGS

With `COC1CCC2(CC1)Cc1ccc(C#N)cc1C21N=C(N)N(CC2CCCO2)C1=O` (stereo not shown), 10 µM produced 16% inhibition.
